Results published in ChEMBL document CHEMBL1201862, “PubChem BioAssay data set” (2004).
Values joined by “and” are separate entries in the source; they are usually repeats but may differ in a detail not shown here. Equal values may be shown once.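 Cultured in 96-well plates, cells were exposed to test compound for 48 hours across five concentrations. At the GI50, growth is halved.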 Active and inactive are the calls of the source. Cut-off read from the data, not from the text of the source: active = GI50 up to about 1.1 µM and inactive = higher.

Tests used:
Experiment in all cases: growth of human tumour cells (NCI), 48 h
CAKI-1 = test system: CAKI-1
HCC 2998 = test system: HCC 2998
HCT-15 = test system: HCT-15
HL-60 = test system: HL-60
HOP-62 = test system: HOP-62
IGROV-1 = test system: IGROV-1
M14 = test system: M14
MDA-MB-435 = test system: MDA-MB-435
NCI-H226 = test system: NCI-H226
NCI/ADR-RES = test system: NCI/ADR-RES
PC-3 = test system: PC-3
RXF 393 = test system: RXF 393
SK-MEL-2 = test system: SK-MEL-2
SNB-19 = test system: SNB-19
SW-620 = test system: SW-620
T47D = test system: T47D
TK-10 = test system: TK-10
UACC-62 = test system: UACC-62
UO-31 = test system: UO-31

Structure (SMILES) | GI50 (CAKI-1) | GI50 (HCC 2998) | GI50 (HCT-15) | GI50 (HL-60) | GI50 (HOP-62) | GI50 (IGROV-1) | GI50 (M14) | GI50 (MDA-MB-435) | GI50 (NCI-H226) | GI50 (NCI/ADR-RES) | GI50 (PC-3) | GI50 (RXF 393) | GI50 (SK-MEL-2) | GI50 (SNB-19) | GI50 (SW-620) | GI50 (T47D) | GI50 (TK-10) | GI50 (UACC-62) | GI50 (UO-31)
CCO/C=C1\SC(=S)N(c2ccc(OCC)cc2)C1=O | 55.7 µM (inactive) | 52.5 µM (inactive) | 72.4 µM | > 100 µM (inactive) | > 100 µM (inactive) | > 100 µM (inactive) | 97.5 µM (inactive) | 78.5 µM (inactive) | 69.7 µM (inactive) | > 100 µM (inactive) | 57.1 µM (inactive) | 33.3 µM (inactive) | 59.4 µM (inactive) | > 100 µM (inactive) | > 100 µM (inactive) | 28.9 µM (inactive) | 90.4 µM (inactive) | 68.4 µM (inactive) | 54.5 µM (inactive)
O=C1c2cc3c(cc2CC12Cc1cc4c(cc1C2=O)CCC4)CCC3 | > 100 µM (inactive) | > 100 µM (inactive) | > 100 µM | > 100 µM (inactive) | > 100 µM (inactive) | > 100 µM (inactive) | 14.4 µM (inactive) | > 100 µM (inactive) | > 100 µM (inactive) | > 100 µM (inactive) | > 100 µM (inactive) | 21.8 µM (inactive) | > 100 µM (inactive) | > 100 µM (inactive) | > 100 µM (inactive) | > 100 µM (inactive) | > 100 µM (inactive) | > 100 µM (inactive) | > 100 µM (inactive)
O=C(O)c1ccc(C(=O)Nc2cccc3ccccc23)c(C(=O)O)c1 | > 100 µM (inactive) | > 100 µM (inactive) | > 100 µM | > 100 µM (inactive) | > 100 µM (inactive) | > 100 µM (inactive) | > 100 µM (inactive) | > 100 µM (inactive) | > 100 µM (inactive) | > 100 µM (inactive) | > 100 µM (inactive) | > 100 µM (inactive) | > 100 µM (inactive) | > 100 µM (inactive) | > 100 µM (inactive) | > 100 µM (inactive) | > 100 µM (inactive) | > 100 µM (inactive) | > 100 µM (inactive)
NNC(=O)CSc1nnc(CCCCCCCCc2nnc(SCC(=O)NN)o2)o1 | > 100 µM (inactive) | > 100 µM (inactive) | > 100 µM | > 100 µM (inactive) | > 100 µM (inactive) | > 100 µM (inactive) | > 100 µM (inactive) | > 100 µM (inactive) | > 100 µM (inactive) | > 100 µM (inactive) | > 100 µM (inactive) | > 100 µM (inactive) | > 100 µM (inactive) | > 100 µM (inactive) | > 100 µM (inactive) | > 100 µM (inactive) | > 100 µM (inactive) | > 100 µM (inactive) | > 100 µM (inactive)
Cc1cc(Cl)ccc1NC(=O)/C(Cc1nc2ccc(C(=O)c3ccccc3)cc2nc1O)=N/NC(=O)c1ccncc1 | > 100 µM (inactive) | > 100 µM (inactive) | 92 µM | 95.9 µM (inactive) | > 100 µM (inactive) | > 100 µM (inactive) | > 100 µM (inactive) | 42.4 µM (inactive) | 1.72 µM (inactive) | > 100 µM (inactive) | > 100 µM (inactive) | > 100 µM (inactive) | > 100 µM (inactive) | > 100 µM (inactive) | > 100 µM (inactive) | > 100 µM (inactive) | > 100 µM (inactive) | 97.3 µM (inactive) | 53.8 µM (inactive)
O=CC(=C(I)I)c1ccccc1 | 3.03 µM (inactive) | 10.5 µM (inactive) | 1.82 µM | 0.0635 µM (active) | 7.24 µM (inactive) | 4.06 µM (inactive) | 1.75 µM (inactive) | 2.07 µM (inactive) | 13.4 µM (inactive) | 14.6 µM (inactive) | 3.7 µM (inactive) | 1.88 µM (inactive) | 6.49 µM (inactive) | 7.78 µM (inactive) | 0.728 µM (active) | 3.55 µM (inactive) | 2.45 µM (inactive) | 6.08 µM (inactive) | 2.69 µM (inactive)
OC1COC(OCc2ccccc2)C(O)C1O (stereo unspecified) | > 100 µM (inactive) | > 100 µM (inactive) | > 100 µM | > 100 µM (inactive) | > 100 µM (inactive) | > 100 µM (inactive) | > 100 µM (inactive) | > 100 µM (inactive) | > 100 µM (inactive) | > 100 µM (inactive) | > 100 µM (inactive) | > 100 µM (inactive) | > 100 µM (inactive) | > 100 µM (inactive) | > 100 µM (inactive) | > 100 µM (inactive) | > 100 µM (inactive) | > 100 µM (inactive) | > 100 µM (inactive)
CCCCCCC(=O)OC[n+]1ccc(-c2c(COC(=O)NC(C)C)c(COC(=O)NC(C)C)c3n2CCC3)cc1 | 30.8 µM (inactive) | > 100 µM (inactive) | > 100 µM | 23.3 µM (inactive) | > 64.3 µM (inactive) | > 100 µM (inactive) | > 87.9 µM (inactive) | > 100 µM (inactive) | > 100 µM (inactive) | > 100 µM (inactive) | > 90.8 µM (inactive) | > 65.8 µM (inactive) | > 100 µM (inactive) | > 100 µM (inactive) | 74.5 µM (inactive) | > 100 µM (inactive) | > 100 µM (inactive) | 37.1 µM (inactive) | > 100 µM (inactive)
Cc1ccc(/C=C2/N/C(=N\N=C/C(O)C(O)C(O)C(O)CO)NC2=O)cc1 (stereo unspecified) | > 100 µM (inactive) | > 100 µM (inactive) | > 100 µM and 69.8 µM | > 100 µM (inactive) | > 100 µM (inactive) | > 100 µM (inactive) | > 100 µM (inactive) | > 100 µM (inactive) | > 100 µM (inactive) | > 100 µM (inactive) | > 100 µM (inactive) | > 100 µM (inactive) | > 100 µM (inactive) | > 100 µM (inactive) | > 100 µM (inactive) | > 100 µM (inactive) and 99.1 µM (inactive) | > 100 µM (inactive) |  | > 100 µM (inactive)
COc1ccccc1OCC(=N/NC(=O)c1ccncc1)/N=C/c1cccnc1 | > 100 µM (inactive) | > 100 µM (inactive) | > 100 µM | > 100 µM (inactive) | > 100 µM (inactive) | > 100 µM (inactive) | > 100 µM (inactive) | > 100 µM (inactive) | > 100 µM (inactive) | > 100 µM (inactive) | > 100 µM (inactive) | > 100 µM (inactive) | > 100 µM (inactive) | > 100 µM (inactive) | > 100 µM (inactive) | > 100 µM (inactive) | > 100 µM (inactive) | > 100 µM (inactive) | 
O=C1NC(=N/c2ccccc2)/C(=N\c2ccccc2)N1c1ccccc1 | 16.3 µM (inactive) | 16.9 µM (inactive) | 14.5 µM | 26.2 µM (inactive) | 18.5 µM (inactive) | 16.6 µM (inactive) |  | 14.2 µM (inactive) | 16.9 µM (inactive) | 15.5 µM (inactive) | 14.5 µM (inactive) | 15 µM (inactive) | 15.1 µM (inactive) | 17 µM (inactive) | 16.5 µM (inactive) | 15.1 µM (inactive) | 16.9 µM (inactive) | 12.7 µM (inactive) | 16.5 µM (inactive)
